Measured values as given in patent US8084457B2, “Pharmaceutically active 4,6-disubstituted aminopyrimidine derivatives as modulators of protein kinases” (Lead Discovery Center GmbH, priority 2003, dated 2011).

Experiments:
Format in all cases: biochemical
GSK-3β = GSK-3β (Homo sapiens, UniProt P49841); assay: General kinase assay, selectivity panel: GSK-3β; settings: 10 μM of compound, in comparison to DMSO (0% inhibition)
Experimental: (§1) The inhibitory effect of compounds according to the present invention on the activity of protein kinases, depicted in Table 1, can be measured according to the following protocol:
(§2) Pipettinq Sequence: • 1) Add 10 μl 4 fold concentrated Substrate+4 fold concentrated ATP in 3 fold concentrated Reaction Buffer to each well of Assay Plate • 2) Add 10 μl 4 fold concentrated inhibitor in 4% DMSO in H2O to each well except to C− and C+ wells • 3) Add 10 μl 4% DMSO in H2O to C− and C+ wells • 4) Add 10 μl 500 mM EDTA in H2O to − wells • 5) Add 10 μl 50 μCi/ml Adenosine 5′-[γ-^33P]triphosphate in H2O to each well • 6) Add 10 μl 4 fold concentrated kinase in Reaction Buffer to each well • 7) Incubate 1 hr at room temperature • 8) Add 10 μl 50 mM EDTA in H2O to each well except to C− wells • 9) Prepare MAPH plates by adding 200 μl 0.75% H3PO4 to each well • 10) Exhaust 0.75% H3PO4 using Millipore vacuum station • 11) Add 60 μl 0.75% H3PO4 to each well of MAPH Filter Plate • 12) Transfer 30 μl sample per well from Assay Plate to corresponding well of MAPH Filter Plate • 13) Incubate 30 min at room temperature • 14) Wash each well of MAPH Filter Plates 3× with 200 μl 0.75% H3PO4 using Millipore vacuum station. • 15) Add 20 μl Scintillation Liquid to each well of MAPH Filter Plate • 16) Seal MAPH Filter Plate • 17) Store MAPH Filter Plate 30 min in darkness • 18) Quantify radioactivity
(§3) The activity of these protein kinases is depicted as % inhibition in the presence of 10 μM of compound in comparison to DMSO (0% inhibition).

c-Kit = c-Kit (Homo sapiens, UniProt P10721); assay: General kinase assay, selectivity panel: c-Kit; settings: 10 μM of compound, in comparison to DMSO (0% inhibition)
Experimental: as §1, §2, §3

EGFR = EGFR (Homo sapiens, UniProt P00533); assay: General kinase assay, selectivity panel: EGFR; settings: 10 μM of compound, in comparison to DMSO (0% inhibition)
Experimental: as §1, §2, §3

Abl = Abl (Homo sapiens, UniProt P00519); assay: General kinase assay, selectivity panel: Abl; settings: 10 μM of compound, in comparison to DMSO (0% inhibition)
Experimental: as §1, §2, §3

PDGFR = assay: General kinase assay, selectivity panel: PDGFR; settings: 10 μM of compound, in comparison to DMSO (0% inhibition)
Experimental: as §1, §2, §3

p56 Lck = p56 Lck (Homo sapiens, UniProt P06239); assay: General kinase assay, selectivity panel: p56 Lck; settings: 10 μM of compound, in comparison to DMSO (0% inhibition)
Experimental: as §1, §2, §3

CDK1 = CDK1 (Homo sapiens, UniProt P06493); assay: General kinase assay, selectivity panel: CDK1; settings: 10 μM of compound, in comparison to DMSO (0% inhibition)
Experimental: as §1, §2, §3

CDK4 = CDK4 (Homo sapiens, UniProt P11802); assay: CDK4 (activity range), Table 2; no method described
CDK5/p35 = target: T1, CDK5/p35 (Homo sapiens, UniProt Q00535); assay: Kinase assay determining CDK5/p35 activity (selectivity panel); settings: 10 μM of compound, in comparison to DMSO (0% inhibition)
T1 construct: purchased Upsate (Upstate)
Experimental: Kinase Assays Determining CDK2/CyclinA and CDK5/p35 Activity:
Kinase assays were performed as described by the manufacturers recommendations (Proqinase for CDK2/CyclinA and Upsate for CDK5/p35).
as §3

RSK1 = RSK1 (Homo sapiens, UniProt Q15418); assay: General kinase assay, selectivity panel: RSK1; settings: 10 μM of compound, in comparison to DMSO (0% inhibition)
Experimental: as §1, §2, §3

CDK4, sequence (P11802 whole entry, species assumed): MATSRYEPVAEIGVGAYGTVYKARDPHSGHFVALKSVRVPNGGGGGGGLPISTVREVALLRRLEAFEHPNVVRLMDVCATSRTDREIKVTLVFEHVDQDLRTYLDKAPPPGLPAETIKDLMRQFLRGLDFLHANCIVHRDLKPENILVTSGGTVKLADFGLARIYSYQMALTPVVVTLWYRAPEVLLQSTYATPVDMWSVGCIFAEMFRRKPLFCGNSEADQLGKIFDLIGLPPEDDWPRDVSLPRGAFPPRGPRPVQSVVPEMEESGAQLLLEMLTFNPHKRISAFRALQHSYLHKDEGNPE
CDK4, sequence (P24385 whole entry partner, species assumed): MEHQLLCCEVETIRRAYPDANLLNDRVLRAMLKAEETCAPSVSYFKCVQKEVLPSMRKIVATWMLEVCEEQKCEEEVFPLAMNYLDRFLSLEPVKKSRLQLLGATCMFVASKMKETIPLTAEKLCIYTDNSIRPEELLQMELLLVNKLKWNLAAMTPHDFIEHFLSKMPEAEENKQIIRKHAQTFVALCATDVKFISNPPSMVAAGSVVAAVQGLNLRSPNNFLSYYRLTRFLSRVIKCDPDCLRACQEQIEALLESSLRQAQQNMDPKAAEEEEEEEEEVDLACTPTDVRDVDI
CDK1, sequence (P06493 whole entry, species assumed): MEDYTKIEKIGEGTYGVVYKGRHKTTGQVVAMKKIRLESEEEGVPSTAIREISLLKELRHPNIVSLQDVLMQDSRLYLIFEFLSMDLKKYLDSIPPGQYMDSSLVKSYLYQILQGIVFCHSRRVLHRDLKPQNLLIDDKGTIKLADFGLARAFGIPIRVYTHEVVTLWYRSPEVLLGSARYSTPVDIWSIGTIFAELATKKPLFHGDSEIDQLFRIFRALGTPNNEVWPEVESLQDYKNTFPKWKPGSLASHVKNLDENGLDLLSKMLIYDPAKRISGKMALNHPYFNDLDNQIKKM
CDK1, sequence (P14635 whole entry partner, species assumed): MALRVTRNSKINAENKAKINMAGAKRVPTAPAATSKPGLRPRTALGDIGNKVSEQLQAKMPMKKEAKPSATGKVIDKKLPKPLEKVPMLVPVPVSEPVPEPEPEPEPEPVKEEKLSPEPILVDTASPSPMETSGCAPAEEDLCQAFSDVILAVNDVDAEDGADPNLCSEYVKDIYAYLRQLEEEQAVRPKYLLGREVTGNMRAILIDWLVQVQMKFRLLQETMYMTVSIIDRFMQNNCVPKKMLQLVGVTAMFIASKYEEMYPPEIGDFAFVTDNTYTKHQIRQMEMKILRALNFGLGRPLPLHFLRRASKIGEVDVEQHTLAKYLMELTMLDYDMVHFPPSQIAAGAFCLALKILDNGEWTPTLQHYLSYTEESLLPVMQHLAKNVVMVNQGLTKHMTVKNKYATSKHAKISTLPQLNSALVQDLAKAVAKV
p56 Lck, sequence (P06239 whole entry): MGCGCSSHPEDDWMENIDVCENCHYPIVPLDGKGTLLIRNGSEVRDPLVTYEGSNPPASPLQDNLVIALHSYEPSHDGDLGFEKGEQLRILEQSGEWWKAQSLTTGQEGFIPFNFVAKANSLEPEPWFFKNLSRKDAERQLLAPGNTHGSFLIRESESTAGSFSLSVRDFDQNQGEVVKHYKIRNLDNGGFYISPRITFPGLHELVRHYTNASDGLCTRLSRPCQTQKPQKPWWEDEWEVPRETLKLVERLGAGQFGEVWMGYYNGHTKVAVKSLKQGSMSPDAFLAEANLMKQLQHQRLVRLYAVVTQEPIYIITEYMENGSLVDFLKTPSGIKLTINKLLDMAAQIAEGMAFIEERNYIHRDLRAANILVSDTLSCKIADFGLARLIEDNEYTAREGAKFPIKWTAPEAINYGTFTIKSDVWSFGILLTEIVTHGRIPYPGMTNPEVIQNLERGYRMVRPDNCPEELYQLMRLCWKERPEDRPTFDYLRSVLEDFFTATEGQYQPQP
GSK-3β, sequence (P49841 whole entry, species assumed): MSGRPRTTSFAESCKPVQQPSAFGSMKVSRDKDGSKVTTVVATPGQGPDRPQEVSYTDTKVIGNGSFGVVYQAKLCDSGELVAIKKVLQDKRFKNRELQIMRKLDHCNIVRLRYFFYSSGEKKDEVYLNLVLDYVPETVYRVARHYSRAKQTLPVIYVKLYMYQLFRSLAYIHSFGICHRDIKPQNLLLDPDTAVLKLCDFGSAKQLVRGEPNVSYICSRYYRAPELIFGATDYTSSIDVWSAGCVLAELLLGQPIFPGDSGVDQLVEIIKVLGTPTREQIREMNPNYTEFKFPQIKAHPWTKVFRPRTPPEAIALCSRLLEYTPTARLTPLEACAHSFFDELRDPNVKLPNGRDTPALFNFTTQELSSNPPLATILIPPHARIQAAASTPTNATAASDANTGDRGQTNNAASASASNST
Abl, sequence (P00519 whole entry, species assumed): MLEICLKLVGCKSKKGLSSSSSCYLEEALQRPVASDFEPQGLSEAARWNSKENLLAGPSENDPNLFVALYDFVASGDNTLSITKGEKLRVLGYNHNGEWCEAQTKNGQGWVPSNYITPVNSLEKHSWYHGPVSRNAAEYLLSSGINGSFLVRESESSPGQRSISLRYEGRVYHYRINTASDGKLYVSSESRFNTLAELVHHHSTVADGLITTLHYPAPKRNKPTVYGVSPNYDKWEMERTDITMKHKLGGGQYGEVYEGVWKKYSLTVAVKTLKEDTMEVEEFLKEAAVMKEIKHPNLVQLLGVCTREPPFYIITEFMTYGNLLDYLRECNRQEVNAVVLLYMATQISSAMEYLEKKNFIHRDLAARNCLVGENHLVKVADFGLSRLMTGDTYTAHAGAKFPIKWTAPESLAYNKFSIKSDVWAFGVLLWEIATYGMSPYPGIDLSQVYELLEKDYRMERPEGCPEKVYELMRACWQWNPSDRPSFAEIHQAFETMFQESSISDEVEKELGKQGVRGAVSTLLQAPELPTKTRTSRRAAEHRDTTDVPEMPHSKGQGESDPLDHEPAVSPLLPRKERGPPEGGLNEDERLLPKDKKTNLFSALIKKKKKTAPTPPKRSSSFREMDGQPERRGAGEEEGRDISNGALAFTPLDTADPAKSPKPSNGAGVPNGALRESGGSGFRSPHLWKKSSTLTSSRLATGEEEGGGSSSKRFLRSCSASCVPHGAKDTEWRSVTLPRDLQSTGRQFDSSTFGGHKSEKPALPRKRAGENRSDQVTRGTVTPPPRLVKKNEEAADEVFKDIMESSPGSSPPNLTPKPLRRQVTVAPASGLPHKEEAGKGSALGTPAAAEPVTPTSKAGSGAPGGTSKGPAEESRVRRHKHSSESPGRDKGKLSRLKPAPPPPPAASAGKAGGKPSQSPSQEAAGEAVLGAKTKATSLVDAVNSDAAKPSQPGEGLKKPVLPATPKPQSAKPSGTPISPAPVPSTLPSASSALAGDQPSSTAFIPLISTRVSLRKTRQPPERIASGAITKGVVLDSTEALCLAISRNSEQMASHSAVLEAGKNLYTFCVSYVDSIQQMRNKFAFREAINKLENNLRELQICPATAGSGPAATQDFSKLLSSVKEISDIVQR
T1 sequence (Q00535 whole entry): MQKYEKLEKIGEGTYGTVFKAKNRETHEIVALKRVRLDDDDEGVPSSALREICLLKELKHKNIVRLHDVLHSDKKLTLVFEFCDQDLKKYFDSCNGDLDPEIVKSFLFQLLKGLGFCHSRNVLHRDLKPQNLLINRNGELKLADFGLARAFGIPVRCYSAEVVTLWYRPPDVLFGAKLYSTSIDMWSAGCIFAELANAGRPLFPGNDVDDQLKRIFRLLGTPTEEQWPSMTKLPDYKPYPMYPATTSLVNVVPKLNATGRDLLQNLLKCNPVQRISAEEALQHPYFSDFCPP
T1 sequence (Q15078 whole entry partner): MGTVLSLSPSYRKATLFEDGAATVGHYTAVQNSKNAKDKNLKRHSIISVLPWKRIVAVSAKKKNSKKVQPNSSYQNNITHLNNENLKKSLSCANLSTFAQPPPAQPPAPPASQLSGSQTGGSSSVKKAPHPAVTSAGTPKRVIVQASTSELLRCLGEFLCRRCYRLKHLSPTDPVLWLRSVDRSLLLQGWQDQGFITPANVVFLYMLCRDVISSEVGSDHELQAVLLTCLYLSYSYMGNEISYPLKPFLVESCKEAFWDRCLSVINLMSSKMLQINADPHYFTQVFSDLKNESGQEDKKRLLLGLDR
c-Kit, sequence (P10721 26-976): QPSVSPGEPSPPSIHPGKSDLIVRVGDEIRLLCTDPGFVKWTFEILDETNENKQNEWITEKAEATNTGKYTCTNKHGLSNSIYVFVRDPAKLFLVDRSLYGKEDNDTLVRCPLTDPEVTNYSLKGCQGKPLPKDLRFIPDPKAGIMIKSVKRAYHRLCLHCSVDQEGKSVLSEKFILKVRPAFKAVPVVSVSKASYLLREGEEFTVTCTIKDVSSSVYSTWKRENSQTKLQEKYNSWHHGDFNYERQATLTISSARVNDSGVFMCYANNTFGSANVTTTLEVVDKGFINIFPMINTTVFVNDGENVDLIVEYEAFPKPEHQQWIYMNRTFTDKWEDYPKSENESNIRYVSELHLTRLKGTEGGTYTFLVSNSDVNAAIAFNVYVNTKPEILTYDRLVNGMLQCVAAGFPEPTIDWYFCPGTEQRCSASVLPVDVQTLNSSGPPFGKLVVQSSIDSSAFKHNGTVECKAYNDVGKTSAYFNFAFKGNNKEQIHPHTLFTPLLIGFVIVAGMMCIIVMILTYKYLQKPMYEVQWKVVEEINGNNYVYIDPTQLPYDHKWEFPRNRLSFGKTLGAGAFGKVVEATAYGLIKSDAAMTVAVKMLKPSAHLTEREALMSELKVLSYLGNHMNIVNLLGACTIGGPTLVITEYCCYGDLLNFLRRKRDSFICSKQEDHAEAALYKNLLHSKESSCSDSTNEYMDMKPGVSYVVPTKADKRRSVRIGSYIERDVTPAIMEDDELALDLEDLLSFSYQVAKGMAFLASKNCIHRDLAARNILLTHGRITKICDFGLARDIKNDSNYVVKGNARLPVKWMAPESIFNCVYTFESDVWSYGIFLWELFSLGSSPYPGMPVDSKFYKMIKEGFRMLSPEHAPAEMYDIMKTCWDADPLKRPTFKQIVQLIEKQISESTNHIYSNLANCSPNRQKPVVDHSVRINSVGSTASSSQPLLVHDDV

CCN(CC)CCC(=O)Nc1ccc(Nc2cc(-c3ccccc3OC)ncn2)cc1 [Compound 64]
GSK-3β (% inhibition) (GSK-3β): c (inhibition between 50 and 30%: c) | c-Kit (% inhibition) (c-Kit): b (inhibition between 80 and 50%: b) | EGFR (% inhibition) (EGFR): a (inhibition greater than 80%: a) | Abl (% inhibition) (Abl): b (inhibition between 80 and 50%: b) | PDGFR (% inhibition) (PDGFR): b (inhibition between 80 and 50%: b) | p56 Lck (% inhibition) (p56 Lck): b (inhibition between 80 and 50%: b) | CDK1 (% inhibition) (CDK1): a (inhibition greater than 80%: a)

CNS(=O)(=O)c1ccc(Nc2cc(-c3ccccc3OC)ncn2)cc1 [Compound 341]
IC50 (CDK4): 1 to 10 µM

COc1ncccc1-c1cc(Nc2ccc(C(=O)N[C@@H]3CCCC[C@H]3N)cc2)ncn1 [Compound 219]
IC50 (CDK4): 10 to 250 µM

COc1ccccc1-c1cc(Nc2ccc(CCO)cc2)ncn1 [Compound 351]
IC50 (CDK4): 1 to 10 µM

Cc1ccc(Nc2cc(-c3cccc(N)c3)ncn2)cc1NS(=O)(=O)c1ccccc1 [Compound 109]
GSK-3β (% inhibition) (GSK-3β): a (inhibition greater than 80%: a) | EGFR (% inhibition) (EGFR): b (inhibition between 80 and 50%: b) | PDGFR (% inhibition) (PDGFR): c (inhibition between 50 and 30%: c) | CDK5 (% inhibition) (CDK5/p35): a (inhibition greater than 80%: a) | CDK1 (% inhibition) (CDK1): a (inhibition greater than 80%: a)

COc1ccccc1-c1cc(Nc2ccc(N3CCOCC3)cc2)ncn1 [Compound 280]
IC50 (CDK4): 1 to 10 µM

COc1ccccc1-c1cc(Nc2ccc(NC(=O)C3(N)CCCCC3)cc2)ncn1 [Compound 66]
c-Kit (% inhibition) (c-Kit): b (inhibition between 80 and 50%: b) | EGFR (% inhibition) (EGFR): a (inhibition greater than 80%: a) | Abl (% inhibition) (Abl): b (inhibition between 80 and 50%: b) | PDGFR (% inhibition) (PDGFR): b (inhibition between 80 and 50%: b) | p56 Lck (% inhibition) (p56 Lck): b (inhibition between 80 and 50%: b) | CDK1 (% inhibition) (CDK1): b (inhibition between 80 and 50%: b)

COc1ccccc1-c1cc(Nc2ccc(NC(=O)[C@@H](N)c3ccccc3)cc2)ncn1 [Compound 81]
GSK-3β (% inhibition) (GSK-3β): b (inhibition between 80 and 50%: b) | EGFR (% inhibition) (EGFR): b (inhibition between 80 and 50%: b) | Abl (% inhibition) (Abl): b (inhibition between 80 and 50%: b) | PDGFR (% inhibition) (PDGFR): b (inhibition between 80 and 50%: b) | CDK5 (% inhibition) (CDK5/p35): a (inhibition greater than 80%: a) | CDK1 (% inhibition) (CDK1): a (inhibition greater than 80%: a)

O=C(O)Cc1ccc(Nc2cc(-c3ccccc3OCc3ccccc3)ncn2)cc1 [Compound 294]
IC50 (CDK4): 1 to 10 µM

COc1ccccc1-c1cc(Nc2ccc(NC(=O)[C@H]3CCCCN3)cc2)ncn1 [Compound 69]
c-Kit (% inhibition) (c-Kit): b (inhibition between 80 and 50%: b) | EGFR (% inhibition) (EGFR): a (inhibition greater than 80%: a) | Abl (% inhibition) (Abl): b (inhibition between 80 and 50%: b) | PDGFR (% inhibition) (PDGFR): b (inhibition between 80 and 50%: b) | p56 Lck (% inhibition) (p56 Lck): a (inhibition greater than 80%: a) | CDK1 (% inhibition) (CDK1): b (inhibition between 80 and 50%: b)

CN(C)c1ccccc1-c1cc(Nc2ccc(C(=O)N[C@@H]3CCCC[C@H]3N)cc2)ncn1 [Compound 233]
IC50 (CDK4): 1 to 10 µM

CNC(C)(C)C(=O)Nc1ccc(Nc2cc(-c3ccccc3OC)ncn2)cc1 [Compound 118]
EGFR (% inhibition) (EGFR): a (inhibition greater than 80%: a) | Abl (% inhibition) (Abl): c (inhibition between 50 and 30%: c) | PDGFR (% inhibition) (PDGFR): b (inhibition between 80 and 50%: b) | CDK5 (% inhibition) (CDK5/p35): b (inhibition between 80 and 50%: b) | CDK1 (% inhibition) (CDK1): b (inhibition between 80 and 50%: b)

N[C@@H]1CCCC[C@H]1NC(=O)c1ccc(Nc2cc(-c3ccccc3O)ncn2)cc1 [Compound 218]
IC50 (CDK4): 1 to 10 µM

COc1ccccc1-c1cc(Nc2ccc3c(c2)S(=O)(=O)C=C3)ncn1 [Compound 342]
IC50 (CDK4): 10 to 250 µM

CN[C@H](C(=O)Nc1ccc(Nc2cc(-c3ccccc3OC)ncn2)cc1)c1ccccc1 [Compound 82]
GSK-3β (% inhibition) (GSK-3β): c (inhibition between 50 and 30%: c) | EGFR (% inhibition) (EGFR): a (inhibition greater than 80%: a) | Abl (% inhibition) (Abl): c (inhibition between 50 and 30%: c) | PDGFR (% inhibition) (PDGFR): c (inhibition between 50 and 30%: c) | CDK5 (% inhibition) (CDK5/p35): b (inhibition between 80 and 50%: b) | CDK1 (% inhibition) (CDK1): b (inhibition between 80 and 50%: b)

COc1ccccc1-c1cc(Nc2cccc(S(N)(=O)=O)c2)ncn1 [Compound 331]
IC50 (CDK4): 10 to 250 µM

CSc1ccncc1-c1cc(Nc2ccc(C(=O)N[C@@H]3CCCC[C@H]3N)cc2)ncn1 [Compound 224]
IC50 (CDK4): 1 to 10 µM

COc1ccccc1-c1cc(Nc2ccc(NC(=O)c3cn(C)cn3)cc2)ncn1 [Compound 70]
GSK-3β (% inhibition) (GSK-3β): b (inhibition between 80 and 50%: b) | c-Kit (% inhibition) (c-Kit): b (inhibition between 80 and 50%: b) | RSK1 (% inhibition) (RSK1): b (inhibition between 80 and 50%: b) | EGFR (% inhibition) (EGFR): b (inhibition between 80 and 50%: b) | Abl (% inhibition) (Abl): c (inhibition between 50 and 30%: c) | PDGFR (% inhibition) (PDGFR): b (inhibition between 80 and 50%: b) | p56 Lck (% inhibition) (p56 Lck): b (inhibition between 80 and 50%: b) | CDK1 (% inhibition) (CDK1): a (inhibition greater than 80%: a)

COc1ccccc1-c1cc(Nc2ccc(NC(=O)CC3CCCCN3)cc2)ncn1 (stereo not shown) [Compound 59]
c-Kit (% inhibition) (c-Kit): b (inhibition between 80 and 50%: b) | EGFR (% inhibition) (EGFR): a (inhibition greater than 80%: a) | Abl (% inhibition) (Abl): b (inhibition between 80 and 50%: b) | PDGFR (% inhibition) (PDGFR): b (inhibition between 80 and 50%: b) | p56 Lck (% inhibition) (p56 Lck): b (inhibition between 80 and 50%: b) | CDK1 (% inhibition) (CDK1): a (inhibition greater than 80%: a)

COc1ccccc1-c1cc(Nc2ccc3cnn(C)c3c2)ncn1 [Compound 353]
IC50 (CDK4): 1 to 10 µM

COc1ccccc1-c1cc(Nc2ccc(NS(C)(=O)=O)cc2)ncn1 [Compound 33]
GSK-3β (% inhibition) (GSK-3β): b (inhibition between 80 and 50%: b) | c-Kit (% inhibition) (c-Kit): b (inhibition between 80 and 50%: b) | RSK1 (% inhibition) (RSK1): c (inhibition between 50 and 30%: c) | EGFR (% inhibition) (EGFR): b (inhibition between 80 and 50%: b) | PDGFR (% inhibition) (PDGFR): b (inhibition between 80 and 50%: b) | p56 Lck (% inhibition) (p56 Lck): b (inhibition between 80 and 50%: b) | CDK1 (% inhibition) (CDK1): a (inhibition greater than 80%: a)

CCN(CC)CCNC(=O)c1ccc(Nc2cc(-c3ccccc3OC)ncn2)cc1 [Compound 217]
IC50 (CDK4): 1 to 10 µM

COc1cccc(F)c1-c1cc(Nc2cccc(S(C)(=O)=O)c2)ncn1 [Compound 346]
IC50 (CDK4): 1 to 10 µM

COc1ccccc1-c1cc(Nc2ccc(NC(=O)c3ccc(N4CCN(C)CC4)cc3)cc2)ncn1 [Compound 49]
GSK-3β (% inhibition) (GSK-3β): b (inhibition between 80 and 50%: b) | c-Kit (% inhibition) (c-Kit): b (inhibition between 80 and 50%: b) | EGFR (% inhibition) (EGFR): b (inhibition between 80 and 50%: b) | Abl (% inhibition) (Abl): b (inhibition between 80 and 50%: b) | PDGFR (% inhibition) (PDGFR): c (inhibition between 50 and 30%: c) | p56 Lck (% inhibition) (p56 Lck): b (inhibition between 80 and 50%: b) | CDK1 (% inhibition) (CDK1): a (inhibition greater than 80%: a)
